Measured values reported in patent US10376520B2, “Methods for the treatment of cardiovascular disorders” (Galapagos NV, priority 2015, dated 2019).

System: RA patients
Test: Atherogenic index, Study 1 (RA patients, add-on to MTX)
Assay type: in vivo, human
Conditions: for Atherogenic index Mean percentage CFB - 12 weeks results / Atherogenic index Median CFB - 12 weeks results / Atherogenic index Mean CFB: 2 × 100 mg (b.i.d. group); for atherogenic index variation, decrease compared to pre-treatment baseline: Study 1, after 12 weeks treatment
Description: As used herein, the term ‘atherogenic index’ refers to
Double-blind, placebo-controlled add on study in subjects with moderately to severely active RA who have an inadequate response to methotrexate (MTX) (oral or parenteral).
Compound 1 (dosed as a [Compound 1:HCl:3H2O]) is dosed for twelve weeks once daily (q.d.) (50 mg, 100 mg or 200 mg) or twice daily (b.i.d.) (25 mg, 50 mg or 100 mg); or placebo.
At Week 12, the subjects on placebo who have not achieved 20% improvement in swollen joint count (SJC66) and tender joint count (TJC68) are re-randomized automatically to receive Compound 1 (dosed as a [Compound 1:HCl:3H2O]) either at 100 mg q.d. or 50 mg b.i.d. doses in a blinded fashion; subjects on 50 mg q.d. who have not achieved 20% improvement in SJC66 and TJC68 will be assigned to 100 mg q.d. and subjects on 25 mg b.i.d. that have not achieved a 20% improvement in SJC66 and TJC68 will be assigned to 50 mg b.i.d. Subjects who switch treatment at week 12 are handled as if they discontinued at week 12 for the purpose of statistical analysis, whereas subjects in the other groups will maintain their randomized treatment until Week 24.
The atherogenic index has been identified to be a good predictor of cardiovascular disorders risks and is calculated as follows: […]

[1] = increased from 25 mg b.i.d. to 50 mg b.i.d at 12 weeks, week 1
[2] = increased from 25 mg b.i.d. to 50 mg b.i.d at 12 weeks, week 2
[3] = increased from 25 mg b.i.d. to 50 mg b.i.d at 12 weeks, week 4
[4] = increased from 25 mg b.i.d. to 50 mg b.i.d at 12 weeks, week 8
[5] = increased from 25 mg b.i.d. to 50 mg b.i.d at 12 weeks, week 12
[6] = increased from 25 mg b.i.d. to 50 mg b.i.d at 12 weeks, week 16
[7] = increased from 25 mg b.i.d. to 50 mg b.i.d at 12 weeks, week 20
[8] = increased from 25 mg b.i.d. to 50 mg b.i.d at 12 weeks, week 24
[9] = increased from 50 mg q.d. to 100 mg q.d. at 12 weeks, week 1
[10] = increased from 50 mg q.d. to 100 mg q.d. at 12 weeks, week 2
[11] = increased from 50 mg q.d. to 100 mg q.d. at 12 weeks, week 4
[12] = increased from 50 mg q.d. to 100 mg q.d. at 12 weeks, week 8
[13] = increased from 50 mg q.d. to 100 mg q.d. at 12 weeks, week 12
[14] = increased from 50 mg q.d. to 100 mg q.d. at 12 weeks, week 16
[15] = increased from 50 mg q.d. to 100 mg q.d. at 12 weeks, week 20
[16] = increased from 50 mg q.d. to 100 mg q.d. at 12 weeks, week 24
[17] = placebo switched to 50 mg b.i.d at week 12, week 16
[18] = placebo switched to 50 mg b.i.d at week 12, week 20
[19] = placebo switched to 50 mg b.i.d at week 12, week 24
[20] = placebo switched to 100 mg q.d. at week 12, week 16
[21] = placebo switched to 100 mg q.d. at week 12, week 20
[22] = placebo switched to 100 mg q.d. at week 12, week 24

Structure (SMILES): O=C(Nc1nc2cccc(-c3ccc(CN4CCS(=O)(=O)CC4)cc3)n2n1)C1CC1 [Compound 1, cyclopropanecarboxylic acid {5-[4-(1,1-dioxo-thiomorpholin-4-ylmethyl)-phenyl]-[1,2,4]triazolo[1,5-a]pyridin-2yl}-amide]
- Atherogenic index Mean percentage CFB - 12 weeks results (week 2): −5%
- Atherogenic index Median CFB - 12 weeks results (week 2): -0.20 mmol/L
- Atherogenic index Mean CFB (week 4): -0.30 mmol/L
- Atherogenic index Mean percentage CFB - 12 weeks results (week 4): −7%
- Atherogenic index Median CFB - 12 weeks results (week 4): -0.30 mmol/L
- Atherogenic index Mean CFB (week 8): -0.18 mmol/L
- Atherogenic index Mean percentage CFB - 12 weeks results (week 8): −4%
- Atherogenic index Median CFB - 12 weeks results (week 8): -0.20 mmol/L
- Atherogenic index Mean CFB (week 12): -0.24 mmol/L
- Atherogenic index Mean percentage CFB - 12 weeks results (week 12): −5%
- Atherogenic index Median CFB - 12 weeks results (week 12): -0.10 mmol/L
- atherogenic index variation, decrease compared to pre-treatment baseline (100 mg/bid dose): 0.2 fold
- atherogenic index variation, decrease compared to pre-treatment baseline (200 mg q.d.): 0.35 fold
- Atherogenic index Mean CFB - 24 weeks results [1]: 0.05 mmol/L
- Atherogenic index Mean percentage CFB - 24 weeks results [1]: 3.56%
- Atherogenic index Median CFB - 24 weeks results [1]: -0.10 mmol/L
- Atherogenic index Mean CFB - 24 weeks results [2]: -0.11 mmol/L
- Atherogenic index Mean percentage CFB - 24 weeks results [2]: −1.15%
- Atherogenic index Median CFB - 24 weeks results [2]: -0.20 mmol/L
- Atherogenic index Mean CFB - 24 weeks results [3]: -0.15 mmol/L
- Atherogenic index Mean percentage CFB - 24 weeks results [3]: −3.02%
- Atherogenic index Median CFB - 24 weeks results [3]: -0.10 mmol/L
- Atherogenic index Mean CFB - 24 weeks results [4]: -0.17 mmol/L
- Atherogenic index Mean percentage CFB - 24 weeks results [4]: −3.11%
- Atherogenic index Median CFB - 24 weeks results [4]: -0.10 mmol/L
- Atherogenic index Mean CFB - 24 weeks results [5]: -0.19 mmol/L
- Atherogenic index Mean percentage CFB - 24 weeks results [5]: −2.58%
- Atherogenic index Median CFB - 24 weeks results [5]: -0.30 mmol/L
- Atherogenic index Mean CFB - 24 weeks results [6]: -0.10 mmol/L
- Atherogenic index Mean percentage CFB - 24 weeks results [6]: −0.03%
- Atherogenic index Mean CFB - 24 weeks results [7]: -0.26 mmol/L
- Atherogenic index Mean percentage CFB - 24 weeks results [7]: −4.14%
- Atherogenic index Mean CFB - 24 weeks results [8]: -0.24 mmol/L
- Atherogenic index Mean percentage CFB - 24 weeks results [8]: −4.89%
- Atherogenic index Median CFB - 24 weeks results [8]: -0.30 mmol/L
- Atherogenic index Mean CFB - 24 weeks results [9]: -0.03 mmol/L
- Atherogenic index Mean percentage CFB - 24 weeks results [9]: 0.53%
- Atherogenic index Median CFB - 24 weeks results [9]: 0.00 mmol/L
- Atherogenic index Mean CFB - 24 weeks results [10]: -0.06 mmol/L
- Atherogenic index Mean percentage CFB - 24 weeks results [10]: −0.94%
- Atherogenic index Median CFB - 24 weeks results [10]: 0.10 mmol/L
- Atherogenic index Mean CFB - 24 weeks results [11]: -0.11 mmol/L
- Atherogenic index Mean percentage CFB - 24 weeks results [11]: −1.77%
- Atherogenic index Median CFB - 24 weeks results [11]: -0.10 mmol/L
- Atherogenic index Mean CFB - 24 weeks results [12]: -0.13 mmol/L
- Atherogenic index Mean percentage CFB - 24 weeks results [12]: −1.35%
- Atherogenic index Median CFB - 24 weeks results [12]: -0.10 mmol/L
- Atherogenic index Mean CFB - 24 weeks results [13]: 0.02 mmol/L
- Atherogenic index Mean percentage CFB - 24 weeks results [13]: 2.72%
- Atherogenic index Median CFB - 24 weeks results [13]: 0.20 mmol/L
- Atherogenic index Mean CFB - 24 weeks results [14]: -0.05 mmol/L
- Atherogenic index Mean percentage CFB - 24 weeks results [14]: −0.95%
- Atherogenic index Median CFB - 24 weeks results [14]: -0.10 mmol/L
- Atherogenic index Mean CFB - 24 weeks results [15]: 0.02 mmol/L
- Atherogenic index Mean percentage CFB - 24 weeks results [15]: −0.01%
- Atherogenic index Median CFB - 24 weeks results [15]: 0.00 mmol/L
- Atherogenic index Mean CFB - 24 weeks results [16]: -0.12 mmol/L
- Atherogenic index Mean percentage CFB - 24 weeks results [16]: −2.40%
- Atherogenic index Median CFB - 24 weeks results [16]: 0.00 mmol/L
- Atherogenic index Mean CFB - 24 weeks results [17]: -0.47 mmol/L
- Atherogenic index Mean percentage CFB - 24 weeks results [17]: −4.74%
- Atherogenic index Median CFB - 24 weeks results [17]: -0.10 mmol/L
- Atherogenic index Mean CFB - 24 weeks results [18]: -0.39 mmol/L
- Atherogenic index Mean percentage CFB - 24 weeks results [18]: −6.13%
- Atherogenic index Median CFB - 24 weeks results [18]: -0.20 mmol/L
- Atherogenic index Mean CFB - 24 weeks results [19]: -0.45 mmol/L
- Atherogenic index Mean percentage CFB - 24 weeks results [19]: −8.32%
- Atherogenic index Median CFB - 24 weeks results [19]: -0.30 mmol/L
- Atherogenic index Mean CFB - 24 weeks results [20]: -0.07 mmol/L
- Atherogenic index Mean percentage CFB - 24 weeks results [20]: −0.54%
- Atherogenic index Mean CFB - 24 weeks results [21]: -0.12 mmol/L
- Atherogenic index Mean percentage CFB - 24 weeks results [21]: −1.77%
- Atherogenic index Mean CFB - 24 weeks results [22]: -0.12 mmol/L
- Atherogenic index Mean percentage CFB - 24 weeks results [22]: −3.43%
